Measurements reported in patent US9540691B2, “Assays and methods for selecting a treatment regimen for a subject with depression” (THE GENERAL HOSPITAL CORPORATION, priority 2011, dated 2017).
Read-outs that look alike come from different tables or passages of the source.

What was measured:
[1] = tested on: patients with major depressive disorder (MDD) resistant to treatment with SSRIs
From the text: Using the sequential parallel design […] For those randomly assigned to the placebo/placebo sequence, both responders and non-responders to placebo during the first phase (n=25) remain on placebo during the second phase. […] Data from the previous double-blind, placebo-controlled study (Trial 1) can be pooled into the instant study (Trial 2) to provide a more accurate estimate of the placebo effect size, with a weighted average from the two Phases 1 (one from Trial 1 and one from Trial 2) and two Phases 2 (one from Trial 1 and one from Trial 2).
Once patients agree to participate in the study by signing the informed consent document, a full medical and psychiatric history is taken and a physical examination is performed. Screen rating scales are performed. […] The double-blind treatment lasts 60 days, during which patients are seen every 10 days (Visits 1 to 6 of Phase 1—See Table 4 below). Subjects are assigned randomization numbers in consecutive order. The randomization list is provided by a computer-generated random-number list and is maintained by the research pharmacist. In addition, the presence of any side effect or adverse event is carefully documented with the SAFTEE-SI [54]. Reasons for premature discontinuation, including intolerable side effects, are recorded.
All patients are asked to take one tablet of blinded study medication in the morning, in addition to their stable dose of ongoing SSRI treatment. […] Therefore, for patients randomly assigned to the placebo/placebo sequence, the tablets of study medication are placebo during both phases of the study.
The primary efficacy measure can include the change in 17-item Hamilton Rating Scale for Depression (HAM-D-17) score. […] A remission is, for example, defined as a HAM-D-17 score less than 8 at endpoint. Secondary measures of efficacy can include change in CGI-severity, with “clinical response defined” as CGI-S of 1 or 2 at endpoint. Patients with a CGI-I score greater than 5 at any post baseline visit or a 50 percent or greater worsening of depressive symptoms from baseline to that visit are discontinued from the study. Subjects are also discontinued from the study with any emergence of suicidality, homicidality, mania, or psychosis. Additional exemplary instruments that can be administered according to the study schedule include the following: • (1) Structured Clinical Interview for DSM-IV: The SCID-I/P, administered by the clinician, proceeds by modules to diagnose the different Axis I disorders. Questions are asked exactly as written, and each is based on the individual criteria from DSM-IV. Answers are generally rated on a scale of 1-3 (1=doubtful, 2=probable, 3=definite), and, based on the number of positive answers, a diagnosis is determined by a clinician. While the entire SCID-UP is administered at screen, the mood module is administered at each follow up visit. • (2) The MGH Antidepressant Treatment History Questionnaire (MGH-ATR): The MGH-ATR provides specific criteria for the adequate dose and adequate length of a trial for it to be considered a failure, thus allowing clinicians to systematically collect data aimed at assessing the degree of treatment-resistance of the current major depressive episode. • (3) The 28-item Hamilton Depression Scale (HAM-D-28): This version allows scoring of the HAM-D-17, 21-, 25-, and 28-item scales. This instrument is completed by the clinician by using a structured interview and defined anchor points, and aims to quantify the degree of depression over the past 7 days. The HAM-D is the most widely studied instrument for depression, and its reliability and validity are high. • (4) Clinical Global Impressions-Severity and Improvement (CGI-S, CGI-I): These two instruments are scored 1-7 by the clinician based on assessment of the patient's clinical status. They measure, based on history and scores on other instruments: a) Depressive severity (CGI-S) and b) Clinical Improvement (CGI-I). […] Safety Measurements […]

[2] = tested on: patients with major depressive disorder (MDD) resistant to treatment with SSRIs; remark: listed apart in the source
Experimental: Documentation of the presence of any side effect or adverse event is completed at every visit using the SAFTEE-SI. Subjects can contact a clinician at any time between visits concerning adverse events or worsening of symptoms. Suicidal ideation is assessed at each visit. Subjects who are felt by the study clinician to be at high risk for suicide are discontinued from the study and referred for hospitalization and further treatment if clinically indicated (See Tables 4 & 5 below).
One-way analysis of variance can be used to assess differences in total number of SAFTEE-SI AEs between baseline and endpoint.
The study involved the enrollment of a total of 148 patients with MDD over the course of 12 months across 10 medical centers or hospitals in the United States. […] In accordance with the sequential parallel design, the 60-day, double-blind treatment was divided into two phases of 30 days each, with assessments performed every 10 days. […] For those randomly assigned to the placebo/placebo sequence, both responders and non-responders to placebo during the first phase remained on placebo during the second phase.

[3] = 15 mg/day adjunct to SSRI, Phase 1
[4] = 15 mg/day adjunct to SSRI, Phase 2 (Phase 1 completers/non-responders only)
[5] = 15 mg/day adjunct to SSRI, pooled Phases 1 and 2 (SPCD)
[6] = L-methylfolate 7.5 mg (n = 24) with SSRI
[7] = L-methylfolate 7.5 mg vs placebo
[8] = L-methylfolate 16 mg (n = 30) with SSRI
[9] = L-methylfolate 16 mg vs placebo

SMILES: CN1c2c(nc(N)[nH]c2=O)NC[C@@H]1CNc1ccc(C(=O)N[C@@H](CCC(=O)O)C(=O)O)cc1 [6(S)-5-MTHF, 6(S)-5-methyltetrahydrofolate]
- CGI-S Mean score reduction (SD) [1, 3]: −1.3 (0.9)
- HDRS-17 % Remission [1, 3]: 15.7% (3)
- HDRS-17 % Response [1, 3]: 38.8% (7)
- HDRS-17 Mean score reduction (SD) [1, 3]: −7.5 (5.0)
- QIDS-SR % Remission [1, 3]: 21.0% (4)
- QIDS-SR % Responsive [1, 3]: 36.8% (7)
- QIDS-SR Mean score reduction (SD) [1, 3]: −8.1 (5.3)
- CGI-S Mean score reduction (SD) [1, 4]: −0.5 (1.0)
- HDRS-17 % Remission [1, 4]: 11.1% (2)
- HDRS-17 % Response [1, 4]: 27.7% (5)
- HDRS-17 Mean score reduction (SD) [1, 4]: −3.8 (6.2)
- QIDS-SR % Remission [1, 4]: 8.5% (1)
- QIDS-SR % Responsive [1, 4]: 11.1% (2)
- QIDS-SR Mean score reduction (SD) [1, 4]: −1.3 (4.9)
- CGI-S Mean score reduction [1, 5]: −0.92
- QIDS-SR % Remission [1, 5]: 12.3%
- QIDS-SR % Responsive [1, 5]: 23.9%
- QIDS-SR Mean score reduction [1, 5]: −4.7
- response rate (50% or greater reduction in HAM-D-17) vs placebo group (in words) ([1]; SSRI + 15 mg/day, after 30 days, SPCD, FIG. 3A): higher
- reduction in scores of HAM-D-17, QIDS-SR and CGI-S vs placebo group (in words) ([1]; SSRI + 15 mg/day, after 30 days, SPCD, FIG. 3B): greater degree of reduction
- percentage of remitters (HAM-D-17 <8 or QIDS-SR ≦5) vs placebo (in words) ([1]; SSRI + 15 mg/day, after 30 days, FIGS. 3C-3D): no significant difference
- Cardiovascular side effects, Frequency (%) [2, 6]: 0 (0%)
- Gastrointestinal side effects, Frequency (%) [2, 6]: 9 (9.8%)
- Infectious side effects, Frequency (%) [2, 6]: 6 (6.4%)
- Miscellaneous side effects, Frequency (%) [2, 6]: 1 (1.1%)
- Paychological [sic] side effects, Frequency (%) [2, 6]: 2 (2.1%)
- Sexual side effects, Frequency (%) [2, 6]: 0 (0%)
- Sleep side effects, Frequency (%) [2, 6]: 3 (3.2%)
- Somatic side effects, Frequency (%) [2, 6]: 9 (8.6%)
- Cardiovascular side effects, NNH [2, 7]: < placebo
- Gastrointestinal side effects, NNH [2, 7]: < placebo
- Infectious side effects, NNH [2, 7]: < placebo
- Miscellaneous side effects, NNH [2, 7]: < placebo
- Paychological [sic] side effects, NNH [2, 7]: < placebo
- Sexual side effects, NNH [2, 7]: =placebo
- Sleep side effects, NNH [2, 7]: < placebo
- Somatic side effects, NNH [2, 7]: < placebo
- Cardiovascular side effects, Frequency (%) [2, 8]: 2 (6.7%)
- Gastrointestinal side effects, Frequency (%) [2, 8]: 3 (10.0%)
- Infectious side effects, Frequency (%) [2, 8]: 2 (6.7%)
- Miscellaneous side effects, Frequency (%) [2, 8]: 2 (6.7%)
- Paychological [sic] side effects, Frequency (%) [2, 8]: 2 (6.7%)
- Sexual side effects, Frequency (%) [2, 8]: 0 (0%)
- Sleep side effects, Frequency (%) [2, 8]: 2 (6.7%)
- Somatic side effects, Frequency (%) [2, 8]: 3 (10.0%)
- Cardiovascular side effects, NNH [2, 9]: < placebo
- Gastrointestinal side effects, NNH [2, 9]: < placebo
- Infectious side effects, NNH [2, 9]: < placebo
- Miscellaneous side effects, NNH [2, 9]: < placebo
- Paychological [sic] side effects, NNH [2, 9]: < placebo
- Sexual side effects, NNH [2, 9]: =placebo
- Sleep side effects, NNH [2, 9]: < placebo
- Somatic side effects, NNH [2, 9]: < placebo
- adverse side effect when administered with an SSRI (in words) ([2]; Trial 1): does not appear to cause any adverse side effect
